Data taken from publication PMC4823750, “Enoyl-CoA hydratase mediates polyhydroxyalkanoate mobilization in Haloferax mediterranei” (Scientific Reports, 2016).

Experiments:
[1] = molecular target: T1, PhaJ1 (PhaJ1-His6; HFX_5217) (Haloferax mediterranei, UniProt A0ACN4YM66); test: HPLC of dehydration product; type: biochemical; conditions: 0.25 mM racemic 3HB-CoA; 2 M KCl, 100 mM Tris-HCl pH 7.5, 5 mM MgCl2, 45 °C, 30 min
T1 construct: gene maoC; N-terminal His6 tag kept; 219 residues (native); expressed from pTA05-phaJ1 in Haloferax volcanii H1424, Ni-agarose purified

[2] = molecular target: T1, PhaJ1 (PhaJ1-His6; HFX_5217); test: HPLC of hydration product; type: biochemical; conditions: 0.25 mM crotonyl-CoA; 2 M KCl, 100 mM Tris-HCl pH 7.5, 5 mM MgCl2, 45 °C, 30 min

T1 sequence (A0ACN4YM66 entry or part of it): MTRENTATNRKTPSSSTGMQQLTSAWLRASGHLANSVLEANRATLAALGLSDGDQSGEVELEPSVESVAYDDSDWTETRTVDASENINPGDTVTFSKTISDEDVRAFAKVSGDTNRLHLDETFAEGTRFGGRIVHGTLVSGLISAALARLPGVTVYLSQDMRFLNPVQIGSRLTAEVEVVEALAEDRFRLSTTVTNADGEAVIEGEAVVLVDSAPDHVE

Row | SMILES | HPLC of dehydration product [1] | HPLC of hydration product [2]
1 | CC(O)CC(=O)SCCNC(=O)CCNC(=O)[C@H](O)C(C)(C)COP(=O)(O)OP(=O)(O)OC[C@H]1O[C@@H](n2cnc3c(N)ncnc32)[C@H](O)[C@@H]1OP(=O)(O)O (some centres unmarked) [3-hydroxybutyryl-CoA] | minor 3HB-CoA was converted into crotonyl-CoA by PhaJ1 | 
2 | C/C=C/C(=O)SCCNC(=O)CCNC(=O)[C@H](O)C(C)(C)COP(=O)(O)OP(=O)(O)OC[C@H]1O[C@@H](n2cnc3c(N)ncnc32)[C@H](O)[C@@H]1OP(=O)(O)O [crotonyl-CoA] |  | major crotonyl-CoA was converted into 3HB-CoA by PhaJ1
